{"source": "patent US9434738B2", "about": "“Macrocyclic benzofuran and azabenzofuran compounds for the treatment of hepatitis C” (BRISTOL-MYERS SQUIBB COMPANY, priority 2013, dated 2016)", "key": {"[1]": {"system": "genotype 1b HCV replicon in Huh-7 cells", "test": "HCV replicon luciferase assay, genotype 1b", "type": "cell-based", "settings": "Hepatitis C virus, 72 h, Huh-7, Renilla luciferase, 3 days", "method": "Cell lines. The cell lines used to evaluate compounds consist of a human hepatocyte derived cell line (Huh-7) that constitutively expresses a genotype 1a or 1b HCV replicon containing a Renilla luciferase reporter gene. These cells were maintained in Dulbecco's modified Eagle medium (DMEM) containing 10% FBS, 100 U/mL penicillin/streptomycin and 1.0 mg/mL G418.\nHCV Replicon Luciferase Assay.\nTo evaluate compound efficacy, HCV replicon cells were seeded in 96-well plates in DMEM containing 10% FBS at a cell density of 10^4/well. Following incubation at 37° C. overnight, compounds serially diluted in DMSO were added to the cell plates. Alternatively, titrated compounds were transferred to sterile 384-well tissue-culture treated plates and the plates seeded with 50 μL of cells at a density of 2.4×10^3 cells/well in DMEM containing 4% FCS (final DMSO concentration at 0.5%). After 3 days incubation at 37° C., cells were analyzed for Renilla Luciferase activity using the EnduRen substrate (Promega cat #E6485) according to the manufacturer's directions. Briefly, the EnduRen substrate was diluted in DMEM and then added to the plates to a final concentration of 7.5 μM. The plates were incubated for at least 1 h at 37° C. then read on a TopCount NXT Microplate Scintillation and Luminescence Counter (Packard) or Viewlux Imager (PerkinElmer) using a luminescence program. The 50% effective concentration (EC50) was calculated using the exponential form of the median effect equation where EC50=100−[(δFinh/δFcon)×100]."}, "HCV RNA levels": {"system": "HCV RNA levels", "settings": "cited from earlier work"}, "HCV": {"system": "HCV", "settings": "combination therapy; cited from earlier work"}}, "note": "Like-named read-outs stand apart in the source and are kept apart here."}
{"compound": "CNC(=O)c1c(-c2ccc(F)cc2)oc2cc3c(cc12)-c1cc(C(=O)NC(C)(C)C)cc(c1)N(S(C)(=O)=O)CCCCN3S(C)(=O)=O", "note": "[Compound 1001]", "values": [{"measurement": "EC50", "setting": "[1]; read-out: EC50 1b (class)", "result": "0.1 to 1", "unit": "µM"}, {"measurement": "EC50", "setting": "[1]; read-out: EC50 (uM) 1b", "result": 0.171, "unit": "µM"}]}
{"compound": "CNC(=O)c1c(-c2ccc(F)cc2)oc2cc3c(cc12)-c1cc(C(=O)NC(C)(C)C)cc(c1)N(S(C)(=O)=O)CCCCCN3S(C)(=O)=O", "note": "[Compound 1002]", "values": [{"measurement": "EC50", "setting": "[1]; read-out: EC50 1b (class)", "result": "0.1 to 1", "unit": "µM"}]}
{"compound": "CNC(=O)c1c(-c2ccc(F)cc2)oc2cc3c(cc12)-c1cc(C(=O)NC(C)(C)C)cc(c1)N(S(C)(=O)=O)CCCCCCN3S(C)(=O)=O", "note": "[Compound 1003]", "values": [{"measurement": "EC50", "setting": "[1]; read-out: EC50 1b (class)", "result": "0.1 to 1", "unit": "µM"}]}
{"compound": "CNC(=O)c1c(-c2ccc(F)cc2)oc2cc3c(cc12)-c1cc(C(=O)NC(C)(C)C)cc(c1)N(S(C)(=O)=O)CCCCCCCN3S(C)(=O)=O", "note": "[Compound 1004]", "values": [{"measurement": "EC50", "setting": "[1]; read-out: EC50 1b (class)", "result": "< 0.1", "unit": "µM"}, {"measurement": "EC50", "setting": "[1]; read-out: EC50 (uM) 1b", "result": 0.0477, "unit": "µM"}]}
{"compound": "CNC(=O)c1c(-c2ccc(F)cc2)oc2cc3c(cc12)-c1cc(C(=O)NC(C)(C)C)cc(c1)N(S(C)(=O)=O)CCCCCCCCN3S(C)(=O)=O", "note": "[Compound 1005]", "values": [{"measurement": "EC50", "setting": "[1]; read-out: EC50 1b (class)", "result": "0.1 to 1", "unit": "µM"}]}
{"compound": "CNC(=O)c1c(-c2ccc(F)cc2)oc2cc3c(cc12)-c1cc(C(=O)NC(C)(C)C)cc(c1)N(S(C)(=O)=O)CCc1ccc(cc1)CCN3S(C)(=O)=O", "note": "[Compound 1006]", "values": [{"measurement": "EC50", "setting": "[1]; read-out: EC50 1b (class)", "result": "> 1", "unit": "µM"}, {"measurement": "EC50", "setting": "[1]; read-out: EC50 (uM) 1b", "result": 1.21, "unit": "µM"}]}
{"compound": "CNC(=O)c1c(-c2ccc(F)cc2)oc2cc3c(cc12)-c1cc(cc(C(=O)NC(C)(C)C)c1)NC(=O)CCCCC(=O)N3", "note": "[Compound 1051]", "values": [{"measurement": "EC50", "setting": "[1]; read-out: EC50 1b (class)", "result": "> 1", "unit": "µM"}]}
{"compound": "CNC(=O)c1c(-c2ccc(F)cc2)oc2cc3c(cc12)-c1cc(cc(C(=O)NC(C)(C)C)c1)NC(=O)CCCCCCCCC(=O)N3", "note": "[Compound 1052]", "values": [{"measurement": "EC50", "setting": "[1]; read-out: EC50 1b (class)", "result": "0.1 to 1", "unit": "µM"}, {"measurement": "EC50", "setting": "[1]; read-out: EC50 (uM) 1b", "result": 0.789, "unit": "µM"}]}
{"compound": "CNC(=O)c1c(-c2ccc(F)cc2)oc2cc3c(cc12)-c1cc(cc(C(=O)NC(C)(C)C)c1)NC(=O)CCCCCCCCCCC(=O)N3", "note": "[Compound 1053]", "values": [{"measurement": "EC50", "setting": "[1]; read-out: EC50 1b (class)", "result": "0.1 to 1", "unit": "µM"}]}
{"compound": "CNC(=O)c1c(-c2ccc(F)cc2)oc2cc3c(cc12)-c1cc(cc(C(=O)NC(C)(C)C)c1)NC(=O)OCCOC(=O)N3", "note": "[Compound 1054]", "values": [{"measurement": "EC50", "setting": "[1]; read-out: EC50 1b (class)", "result": "> 1", "unit": "µM"}]}
{"compound": "CNC(=O)c1c(-c2ccc(F)cc2)oc2cc3c(cc12)-c1cc(cc(C(=O)NC(C)(C)C)c1)NC(=O)OCCOCCOC(=O)N3", "note": "[Compound 1055]", "values": [{"measurement": "EC50", "setting": "[1]; read-out: EC50 1b (class)", "result": "> 1", "unit": "µM"}]}
{"compound": "CNC(=O)c1c(-c2ccc(F)cc2)oc2cc3c(cc12)-c1cc(cc(C(=O)NC(C)(C)C)c1)NC(=O)OCCOCCOCCOC(=O)N3", "note": "[Compound 1056]", "values": [{"measurement": "EC50", "setting": "[1]; read-out: EC50 1b (class)", "result": "> 1", "unit": "µM"}, {"measurement": "EC50", "setting": "[1]; read-out: EC50 (uM) 1b", "result": 8.34, "unit": "µM"}]}
{"compound": "CNC(=O)c1c(-c2ccc(F)cc2)oc2cc3c(cc12)-c1cc(cc(C(=O)NC(C)(C)C)c1)NC(=S)NCCCCNC(=S)N3", "note": "[Compound 1057]", "values": [{"measurement": "EC50", "setting": "[1]; read-out: EC50 1b (class)", "result": "> 1", "unit": "µM"}]}
{"compound": "CNC(=O)c1c(-c2ccc(F)cc2)oc2cc3c(cc12)-c1cc(cc(C(=O)NC(C)(C)C)c1)NC(=S)NCCCCCCCCNC(=S)N3", "note": "[Compound 1058]", "values": [{"measurement": "EC50", "setting": "[1]; read-out: EC50 1b (class)", "result": "> 1", "unit": "µM"}]}
{"compound": "CNC(=O)c1c(-c2ccc(F)cc2)oc2cc(N(CCO)S(C)(=O)=O)c(C3CC3)cc12", "note": "[HCV-796]", "values": [{"measurement": "hepatic toxicity", "setting": "HCV RNA levels; extended dosing of the combination regimens", "result": "hepatic toxicity observed"}, {"measurement": "HCV RNA levels in patients", "setting": "HCV RNA levels; patients, single agent or combined with interferon and ribavirin", "result": "reduce HCV RNA levels"}]}
{"compound": "alpha-interferon and ribavirin", "values": [{"measurement": "sustained efficacy", "setting": "HCV", "result": "40 % of patients"}]}
